From ChEMBL document CHEMBL2384918, “Identification of Selective Nanomolar Inhibitors of the Human Neuraminidase, NEU4” (ACS Med Chem Lett, 2013)

What was measured:
Sialidase-1 = Sialidase-1 (Homo sapiens, UniProt Q99519); assay: Inhibition of human NEU1 using 4-MU-NANA as substrate preincubated for 15 mins before substrate addition measured after 30 mins by fluorescence plate reader analysis
Sialidase-4 [1] = target: T1, Sialidase-4 (Homo sapiens, UniProt Q8WWR8); assay: Inhibition of human NEU4 using 4-MU-NANA as substrate preincubated for 15 mins before substrate addition measured after 30 mins by fluorescence plate reader analysis
T1 sequence (Q8WWR8 whole entry): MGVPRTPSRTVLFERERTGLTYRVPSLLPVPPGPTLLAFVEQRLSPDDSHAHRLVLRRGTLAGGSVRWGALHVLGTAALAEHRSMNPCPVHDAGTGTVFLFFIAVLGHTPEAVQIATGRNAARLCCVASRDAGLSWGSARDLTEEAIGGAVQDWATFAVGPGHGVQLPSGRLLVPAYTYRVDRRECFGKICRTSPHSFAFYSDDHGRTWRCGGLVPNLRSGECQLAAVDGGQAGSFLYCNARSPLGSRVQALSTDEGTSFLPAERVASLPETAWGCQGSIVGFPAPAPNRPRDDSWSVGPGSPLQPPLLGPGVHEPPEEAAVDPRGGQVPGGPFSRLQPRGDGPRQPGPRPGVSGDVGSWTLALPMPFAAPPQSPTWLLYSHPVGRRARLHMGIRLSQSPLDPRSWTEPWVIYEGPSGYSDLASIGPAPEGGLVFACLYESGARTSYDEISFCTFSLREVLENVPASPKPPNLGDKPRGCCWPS

Sialidase-3 = target: T2, Sialidase-3 (Homo sapiens, UniProt Q9UQ49); assay: Inhibition of human NEU3 using 4-MU-NANA as substrate preincubated for 15 mins before substrate addition measured after 30 mins by fluorescence plate reader analysis
T2 sequence (Q9UQ49 whole entry): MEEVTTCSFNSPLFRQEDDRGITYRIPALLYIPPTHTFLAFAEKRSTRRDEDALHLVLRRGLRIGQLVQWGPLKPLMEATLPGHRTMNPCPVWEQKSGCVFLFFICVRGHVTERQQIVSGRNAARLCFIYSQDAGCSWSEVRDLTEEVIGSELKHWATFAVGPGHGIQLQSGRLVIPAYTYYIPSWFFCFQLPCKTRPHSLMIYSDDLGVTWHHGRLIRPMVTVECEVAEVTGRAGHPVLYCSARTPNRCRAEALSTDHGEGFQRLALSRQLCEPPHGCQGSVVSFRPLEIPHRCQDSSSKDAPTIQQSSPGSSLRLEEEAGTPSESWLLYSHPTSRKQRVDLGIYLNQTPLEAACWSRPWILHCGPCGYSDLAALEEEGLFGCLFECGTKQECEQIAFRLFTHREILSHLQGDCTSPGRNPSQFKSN

Sialidase-4 [2] = target: T1, Sialidase-4; assay: Inhibition of human NEU4 using 4-MU-NANA as substrate measured every 30 seconds for 60 mins by fluorescence plate reader analysis

| SMILES | IC50 (Sialidase-1) [µM] | IC50 (Sialidase-4 [1]) [µM] | IC50 (Sialidase-3) [µM] | Ki (Sialidase-4 [2]) [µM] |
| --- | --- | --- | --- | --- |
| CC(=O)N[C@H]1[C@H]([C@H](O)[C@H](O)CN=[N+]=[N-])OC(C(=O)O)=C[C@@H]1O | 620 | 60 | 19.7 |  |
| CC(=O)N[C@H]1[C@H]([C@H](O)[C@H](O)Cn2cc(-c3ccccc3)nn2)OC(C(=O)O)=C[C@@H]1O | > 200 | 2.3 | 4.6 |  |
| CCOc1cn(C[C@@H](O)[C@@H](O)[C@@H]2OC(C(=O)O)=C[C@H](O)[C@H]2NC(C)=O)nn1 | 170 | 3.6 | 90 |  |
| CC(=O)N[C@H]1[C@H]([C@H](O)[C@H](O)Cn2cc(COc3ccccc3)nn2)OC(C(=O)O)=C[C@@H]1O | > 1000 | 1.7 | 5.5 |  |
| CC(=O)N[C@H]1[C@H]([C@H](O)[C@H](O)Cn2cc(CO)nn2)OC(C(=O)O)=C[C@@H]1O | > 1000 |  | 80 |  |
| CC(=O)N[C@H]1[C@H]([C@H](O)[C@H](O)Cn2cc(CCO)nn2)OC(C(=O)O)=C[C@@H]1O | > 1000 | 0.81 | 38 | 0.06 |
| CC(=O)N[C@H]1[C@H]([C@H](O)[C@H](O)Cn2cc(CCCO)nn2)OC(C(=O)O)=C[C@@H]1O | 660 | 2.1 | 39 |  |
| CC(=O)N[C@H]1[C@H]([C@H](O)[C@H](O)Cn2cc(C(C)(C)O)nn2)OC(C(=O)O)=C[C@@H]1O | > 1000 | 4 |  |  |
| [N-]=[N+]=NCC(=O)N[C@H]1[C@H]([C@H](O)[C@H](O)CO)OC(C(=O)O)=C[C@@H]1O | 29 | 4.5 | 4.7 |  |
| O=C(Cn1cc(-c2ccccc2)nn1)N[C@H]1[C@H]([C@H](O)[C@H](O)CO)OC(C(=O)O)=C[C@@H]1O | > 1000 | 250 | > 1000 |  |
